For series [1], the target named is T1, CYP19A1 (Aromatase) (Homo sapiens, UniProt P11511).
T1 construct: purchased BioVision K984-100
T1 sequence (P11511 1-503): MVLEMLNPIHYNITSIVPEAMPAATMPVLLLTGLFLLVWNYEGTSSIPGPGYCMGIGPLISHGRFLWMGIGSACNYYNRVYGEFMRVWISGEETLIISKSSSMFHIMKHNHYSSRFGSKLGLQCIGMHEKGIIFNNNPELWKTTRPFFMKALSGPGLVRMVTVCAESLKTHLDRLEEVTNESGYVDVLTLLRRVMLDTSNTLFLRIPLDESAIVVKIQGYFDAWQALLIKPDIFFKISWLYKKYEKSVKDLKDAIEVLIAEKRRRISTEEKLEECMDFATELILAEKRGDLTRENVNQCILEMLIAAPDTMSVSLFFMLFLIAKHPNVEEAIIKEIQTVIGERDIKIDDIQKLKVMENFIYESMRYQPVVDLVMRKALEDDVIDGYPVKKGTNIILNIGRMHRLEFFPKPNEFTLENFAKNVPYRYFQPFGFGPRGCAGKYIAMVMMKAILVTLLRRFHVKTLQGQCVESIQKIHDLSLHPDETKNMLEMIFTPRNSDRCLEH
Put plainly: Aromatase (CYP19A1) Inhibitor Screening Kit, recombinant enzyme. It is filed as biochemical. The method, then: The in vitro tests on Aromatase were performed by using the Kit Cat# K984-100 assay kit; the Regeneration System, 100× and NADP^+: (100×), 10 mM were used as reaction buffer. In particular, the enzyme was first prepared with the Regeneration System and substrate with NADP^+ in freshly prepared reaction buffer. Then, the resulting solution was delivered into the reaction well.

The subject of series [2] is MCF-7 cells. In words: Cell proliferation assay (trypan blue cell count). The series is classed as cell-based, human. The settings on record: read-out: antiproliferative IC50. As for the experimental part: MCF-7 and MDA-MB-231 cells were plated in 24-well plates and allowed to attach overnight. […] At the end of the treatment, viable cells (evaluated by trypan blue dye exclusion) were counted with a hemocytometer.

Series [3] addresses CYP11B1 (11β-Hydroxylase). The settings on record: cited from earlier work.
In series [4] the test system is CYP11B2 (Aldosterone Synthase). The conditions noted are these: cited from earlier work.

Like-named read-outs stand apart in the source and are kept apart here.

Turning to `OCc1cnc(S)n1Cc1ccc(Cl)cc1Cl` [X1], in series [1], the “inhibition of CYP19A1” value is reported as “no inhibition”.

On to `O=[N+]([O-])c1cc(C(F)(F)F)ccc1Sc1ncc(CO)n1Cc1ccccc1` [X12, (1-Benzyl-2-((2-nitro-4-(trifluoromethyl)phenyl)thio)-1H-imidazol-5-yl)methanol], for which the melting point was in the range of 225.4 to 226.9 °C.

Regarding `N#Cc1ccc(C(c2ccc(C#N)cc2)n2cncn2)cc1` [letrozole], the IC50 in series [2] (Homo sapiens, MCF7, 24 h, MCF-7, 24 h) is 764 ± 114 nM; in series [2] (Homo sapiens, MCF7, 48 h, MCF-7, 48 h) it was 599 ± 333 nM; in series [2] (Homo sapiens, MCF7, 72 h, MCF-7, 72 h), 121 ± 30 nM; in series [2] (MCF-7, 72 h), 120 ± 30 nM; in series [3], 2620 nM; in series [4] it was 1420 nM.

The record behind these values is PMC10714424, “Discovery of a Potent Dual Inhibitor of Aromatase and Aldosterone Synthase” (ACS Pharmacology & Translational Science, 2023).
